Source: PMC6832952, “Synthesis and Evaluation of Pyrimidine Steroids as Antiproliferative Agents” (Molecules, 2019)
Like-named read-outs stand apart in the source and are kept apart here.

What was measured:
[1] = system: HeLa (cervix) cells; experiment: Growth inhibition assay (NCI protocol), HeLa; type: cell-based, human; conditions: Homo sapiens, HeLa; 48 h exposure
Text: (§1) We studied the antiproliferative activity of α,β-unsaturated ketones (2 and 6) and steroidal pyrimidines (3 and 7) against human cell lines following the guidelines of the National Cancer Institute. For the tests we selected five human solid tumor cell lines from diverse origins and one human fibroblast cell line as a model of non-tumor cells. These cell lines were chosen as representative of drug sensitive (A549, HBL-100, and HeLa) and drug resistant (T-47D and WiDr) monolayer cultures based on previous studies. The steroidal anticancer drugs abiraterone and galeterone were also tested for comparison purposes. […] This is a relevant finding, since our compounds are non-toxic to healthy cells, whilst the steroidal anticancer drugs inhibit the growth of fibroblasts at GI50 values as low as 4.5–5 µM.
(§2) The following densities (cells per well) were used: 2500 (A549, HBL-100, HeLa and SW1573), 5000 (T-47D, WiDr and SW1573/PGP), and 7000 (BJ-hTERT). […] Abiraterone and galeterone were used as reference drugs for antiproliferative tests, verapamil was used as a P-gp transport inhibitor in SW1573/Pgp experiments, and their stock solutions were prepared in DMSO at 40 mM. Paclitaxel and vinblastine were used as positive controls in SW1573/Pgp experiments and were initially dissolved in DMSO at 4 mM. For each test compound, the cells were exposed to serial decimal dilutions in the range of 0.001–100 μM for a period of 48 h. Cell culture medium containing verapamil was prepared by adding the final concentration of verapamil of 10 μM. For each product GI50 values were calculated according to the NCI formulas.

[2] = system: HBL-100 (breast) cells; experiment: Growth inhibition assay (NCI protocol), HBL-100; type: cell-based, human; conditions: Homo sapiens, HBL-100; 48 h exposure
Text: as §1, §2

[3] = system: T-47D (breast) cells; experiment: Growth inhibition assay (NCI protocol), T-47D; type: cell-based, human; conditions: Homo sapiens, T47D; 48 h exposure
Text: as §1, §2

[4] = system: A549 (non-small cell lung) cells; experiment: Growth inhibition assay (NCI protocol), A549; type: cell-based, human; conditions: Homo sapiens, A549; 48 h exposure
Text: as §1, §2

[5] = system: BJ-hTERT human fibroblast cells; experiment: Growth inhibition assay (NCI protocol), BJ-hTERT fibroblasts; type: cell-based; conditions: Homo sapiens, Fibroblast; 48 h exposure; non-tumor cells
Text: as §1, §2

[6] = system: WiDr (colon) cells; experiment: Growth inhibition assay (NCI protocol), WiDr; type: cell-based, human; conditions: Homo sapiens, WiDr; 48 h exposure
Text: as §1, §2

[7] = biological target: T1, P-glycoprotein 1 (P-gp) (Homo sapiens, UniProt P08183); experiment: P-glycoprotein assay (SW1573/PGP vs SW1573, resistance factor); type: cell-based; conditions: for Rf w Verapamil / Rf w/o Verapamil: ratio between GI50 values in SW1573/PGP and SW1573 cells; for Rf w Verapamil: with 10 µM verapamil; for Rf w/o Verapamil: without verapamil
T1 construct: its P-gp overexpressing variant (SW1573/PGP); endogenous in cells; host or cells: SW1573 and SW1573/PGP (SW1573/Pgp) human non-small cell lung cancer cells, provided by Dr. G. J. Peters (Amsterdam)
Text: (§3) Next, we studied if the compounds could be substrates for P-glycoprotein 1 (P-gp). P-gp is an important protein of the cell membrane that pumps xenobiotics out of cells. One of the resistance mechanisms to anticancer drugs involves the overexpression of P-gp by cancer cells, rendering these cancers multidrug resistant. Therefore, it is relevant to know whether compounds are substrates for P-gp or not. As a model to test the effect of P-gp overexpression in our compounds, we used a cell line-based assay. We selected one wild type human lung cancer cell line (SW1573) and its P-gp overexpressing variant (SW1573/PGP). In this test, cells were exposed to the compounds for 48 h in the absence or the presence of 10 µM verapamil, a well-known P-gp inhibitor [20].
(§4) The antiproliferative activity was tested in vitro against human cancer cells using the protocol of the National Cancer Institute (NCI) of the USA16 with minor modifications. The following densities (cells per well) were used: 2500 (A549, HBL-100, HeLa and SW1573), 5000 (T-47D, WiDr and SW1573/PGP), and 7000 (BJ-hTERT). Samples for testing were dissolved initially in DMSO at 40 mM, i.e., 400 times the maximum test concentration. Abiraterone and galeterone were used as reference drugs for antiproliferative tests, verapamil was used as a P-gp transport inhibitor in SW1573/Pgp experiments, and their stock solutions were prepared in DMSO at 40 mM. Paclitaxel and vinblastine were used as positive controls in SW1573/Pgp experiments and were initially dissolved in DMSO at 4 mM. For each test compound, the cells were exposed to serial decimal dilutions in the range of 0.001–100 μM for a period of 48 h. Cell culture medium containing verapamil was prepared by adding the final concentration of verapamil of 10 μM. For each product GI50 values were calculated according to the NCI formulas.

[8] = system: P-gp; experiment: in vitro; conditions: human
Text: as §3
(§5) The human solid tumor cell lines A549 (non-small cell lung), HBL-100 (breast), and HeLa (cervix), SW1573 (non-small cell lung), and its P-gp overexpressing variant (SW1573/Pgp), T-47D (breast), and WiDr (colon) were used in this study. These cell lines used in this study were kindly provided by Dr. Godefridus J. Peters (Cancer Center Amsterdam, Vrije Universiteit, Amsterdam, The Netherlands). BJ-hTERT human fibroblast cells were given by Dr. Raimundo Freire (Universidad de La Laguna, Canary Islands). All cells were grown in RPMI 1640 supplemented with 1 mM glutamine, 5% FBS and antibiotics. Cells were grown at 37 °C in a humidified atmosphere of 5% CO2 and maintained at low passage.
as §4

[9] = system: SW1573 (non-small cell lung) cells; experiment: Growth inhibition assay, SW1573 wild type; type: cell-based, human; conditions: Homo sapiens, SW1573, 48 h, without verapamil, read-out: GI50 SW1573 w/o Verapamil
Text: as §3, §5, §4

[10] = system: human solid tumor cell lines; experiment: Antiproliferative activity against the panel of human solid tumor cell lines; type: cell-based; conditions: A549, HBL-100, HeLa, T-47D, WiDr, read-out: GI50 range against all tumor cells
Text: as §5
The antiproliferative activity was tested in vitro against human cancer cells using the protocol of the National Cancer Institute (NCI) of the USA16 with minor modifications. The following densities (cells per well) were used: 2500 (A549, HBL-100, HeLa and SW1573), 5000 (T-47D, WiDr and SW1573/PGP), and 7000 (BJ-hTERT). Samples for testing were dissolved initially in DMSO at 40 mM, i.e., 400 times the maximum test concentration. […] For each product GI50 values were calculated according to the NCI formulas.

T1 sequence (P08183 whole entry): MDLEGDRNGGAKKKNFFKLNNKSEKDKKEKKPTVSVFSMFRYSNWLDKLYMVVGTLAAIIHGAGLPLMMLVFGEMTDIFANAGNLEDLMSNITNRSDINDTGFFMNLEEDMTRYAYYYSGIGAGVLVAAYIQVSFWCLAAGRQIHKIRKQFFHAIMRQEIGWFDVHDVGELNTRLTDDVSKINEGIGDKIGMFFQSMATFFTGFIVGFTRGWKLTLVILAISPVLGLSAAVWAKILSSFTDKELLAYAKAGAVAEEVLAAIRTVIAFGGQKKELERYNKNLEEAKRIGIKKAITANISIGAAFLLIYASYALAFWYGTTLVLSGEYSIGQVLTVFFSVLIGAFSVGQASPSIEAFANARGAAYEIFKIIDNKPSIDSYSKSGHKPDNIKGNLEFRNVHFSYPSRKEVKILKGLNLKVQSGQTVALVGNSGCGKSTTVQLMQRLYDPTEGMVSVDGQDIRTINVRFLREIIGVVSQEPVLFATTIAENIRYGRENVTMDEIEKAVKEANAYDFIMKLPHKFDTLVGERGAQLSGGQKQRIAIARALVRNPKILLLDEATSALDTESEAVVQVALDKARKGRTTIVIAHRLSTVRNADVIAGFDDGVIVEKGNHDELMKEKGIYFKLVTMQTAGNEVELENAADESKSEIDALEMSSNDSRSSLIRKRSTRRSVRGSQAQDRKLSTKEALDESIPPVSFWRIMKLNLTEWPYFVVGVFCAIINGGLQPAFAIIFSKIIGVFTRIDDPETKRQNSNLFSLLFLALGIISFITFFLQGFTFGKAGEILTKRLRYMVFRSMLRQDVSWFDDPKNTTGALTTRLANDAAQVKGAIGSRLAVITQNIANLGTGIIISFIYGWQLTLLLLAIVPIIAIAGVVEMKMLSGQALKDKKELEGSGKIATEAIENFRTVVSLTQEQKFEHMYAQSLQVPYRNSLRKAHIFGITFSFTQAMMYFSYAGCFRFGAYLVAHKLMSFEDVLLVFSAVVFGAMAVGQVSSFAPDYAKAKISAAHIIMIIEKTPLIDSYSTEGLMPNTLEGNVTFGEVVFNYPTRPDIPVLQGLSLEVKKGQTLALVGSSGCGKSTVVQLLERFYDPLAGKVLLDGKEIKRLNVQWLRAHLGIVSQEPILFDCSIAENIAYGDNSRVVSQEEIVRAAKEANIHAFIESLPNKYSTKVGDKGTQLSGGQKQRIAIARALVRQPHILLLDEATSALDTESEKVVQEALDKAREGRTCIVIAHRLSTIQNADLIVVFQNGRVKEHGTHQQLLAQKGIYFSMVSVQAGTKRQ

| SMILES | GI50 [1] [µM] | GI50 [2] [µM] | GI50 [3] [µM] | GI50 [4] [µM] | GI50 [5] [µM] | GI50 [6] [µM] | substrate for P-gp ([7]; SW1573 vs SW1573/PGP, with or without 10 µM verapamil) | Rf w Verapamil [7] | Rf w/o Verapamil [7] | GI50 at 48 h [8] [µM] | GI50 [9] [µM] | melting point [°C] | GI50 [10] [µM] | GI50 ([9]; reference drugs PTX and VB) [µM] |
| --- | --- | --- | --- | --- | --- | --- | --- | --- | --- | --- | --- | --- | --- | --- |
| C[C@]12CC[C@H](O)CC1=CC[C@@H]1[C@@H]2CC[C@]2(C)C(c3cccnc3)=CC[C@@H]12 [Abiraterone, abiraterone, reference compound] | 7.9 ± 0.5 | > 100 | 24 ± 4.5 | 95 ± 0.8 | 4.5 ± 1 | 42 ± 7.7 |  |  |  |  |  |  |  |  |
| C[C@]12CC[C@H]3[C@@H](CC=C4C[C@@H](O)CC[C@@]43C)[C@@H]1CC[C@@H]2C(=O)/C=C/c1ccccc1 [Compound 2, (E)-21-benzyliden-3β-hydroxypregn-5-en-20-one] | 3.3 ± 0.3 | 19 ± 3.7 | 9.9 ± 3.5 | 23 ± 1.6 | > 100 | 6.3 ± 0.5 | not substrates for P-gp | 1.5 | 1.2 | 29 ± 5.5 | 23 ± 0.2 |  |  |  |
| C[C@]12CCC3C(CC=C4C[C@@H](O)CC[C@@]43C)C1CCC2C1=CC(c2ccccc2)NC(=N)N1 (stereo partly drawn) [Compound 3a, 17β-(2′-imino-1′,3′,6′-trihydro-6′-phenylpyrimidin-4′-yl)-androst-5-en-3β-ol] | 6.1 ± 1.2 | 23 ± 2.8 | 8.8 ± 2.2 | 4.4 ± 1 | > 100 | 8.3 ± 1.1 |  | 0.7 | 1.5 | 10 ± 4.2 | 6.9 ± 0.5 | 128 |  |  |
| C[C@]12CCC3C(CC=C4C[C@@H](O)CC[C@@]43C)C1CCC2C1=CC(c2ccccc2)NC(=O)N1 (stereo partly drawn) [Compound 3b, 17β-(1′,3′,6′-trihydro-2′-oxo-6′-phenylpyrimidin-4′-yl)-androst-5-en-3β-ol] | 14 ± 3.6 | 16 ± 1.3 | 15 ± 1.3 | 11 ± 2.9 | 97 ± 5.9 | 15 ± 3.5 |  | 1.6 | 1.9 | 34 ± 13 |  | 108 to 110 |  |  |
| C[C@]12CCC3C(CC=C4C[C@@H](O)CC[C@@]43C)C1CCC2C1=CC(c2ccccc2)NC(=S)N1 (stereo partly drawn) [Compound 3c, 17β-(1′,3′,6′-trihydro-6′-phenyl-2′-thioxopyrimidin-4′-yl)-androst-5-en-3β-ol] | 11 ± 1.5 | 45 ± 7.9 | 13 ± 2.3 | 7.7 ± 1 | > 100 | 9.2 ± 1.6 |  | 1.8 | 3.2 | 38 ± 6.1 | 12 ± 2.7 | 208 to 210 |  |  |
| CC1=C2C(CC3C4CC=C5C[C@@H](O)CC[C@]5(C)C4CC[C@]23C)NC(=O)N1 (stereo partly drawn) [Compound 7b, 1′,3′-dihydro-4′-methyl-2′-oxopyrimidin-(6′,5′:16,17)-androst-5-en-3β-ol] | 3.4 ± 0.2 | 15 ± 3.2 | 15 ± 1.9 | 13 ± 3.7 | > 100 | 18 ± 1.8 |  | 1.4 | 1.5 | 49 ± 4.4 | 34 ± 4.7 | 163 to 164 |  |  |
| CC1=C2C(CC3C4CC=C5C[C@@H](O)CC[C@]5(C)C4CC[C@]23C)NC(=S)N1 (stereo partly drawn) [Compound 7c, 1′,3′-dihydro-4′-methyl-2′-thionepyrimidin-(6′,5′:16, 17)-androst-5-en-3β-ol] | 2.6 ± 0.7 | 3.7 ± 1 | 3 ± 0.5 | 3.4 ± 0.5 | > 100 | 3.1 ± 0.4 |  | 1.1 | 1.7 | 16 ± 1.3 | 9.4 ± 1 | 208 to 210 | 2.6 to 3.7 |  |
| C[C@]12CC[C@H](O)CC1=CC[C@@H]1[C@@H]2CC[C@]2(C)C(n3cnc4ccccc43)=CC[C@@H]12 [Galeterone, galeterone, reference compound] | 5.3 ± 0.4 | 10 ± 0.9 | 2.1 ± 0.1 | 3.9 ± 1.3 | 5 ± 1.3 | 2.7 ± 0.2 |  |  |  |  |  |  |  |  |
| CC(=O)O[C@H]1C(=O)[C@@]2(C)[C@H]([C@H](OC(=O)c3ccccc3)[C@]3(O)C[C@H](OC(=O)[C@H](O)[C@@H](NC(=O)c4ccccc4)c4ccccc4)C(C)=C1C3(C)C)[C@]1(OC(C)=O)CO[C@@H]1C[C@@H]2O [PTX, Paclitaxel, reference compound] |  |  |  |  |  |  |  | 2.6 | 128 | 0.196 ± 0.053 |  |  |  | 0.0015 ± 0.0005 |
| CC[C@]1(O)C[C@@H]2CN(CCc3c([nH]c4ccccc34)[C@@](C(=O)OC)(c3cc4c(cc3OC)N(C)[C@H]3[C@@](O)(C(=O)OC)[C@H](OC(C)=O)[C@]5(CC)C=CCN6CC[C@]43[C@@H]65)C2)C1 [VB, vinblastine, reference compound] |  |  |  |  |  |  |  | 1.3 | 2388 | 2.05 ± 0.682 |  |  |  | 0.0009 ± 0.0003 |
